Measurements as given in the supplement of paper PMC10949913.
Values joined by “and” are separate entries in the source; they are usually repeats but may differ in a detail not shown here. Equal values may be shown once.

Tests used:
Assay in all cases: area under concentration-response curve (viability) (AUC (a.u.)); higher = less active
Conditions in all cases: 48 h
[1] = system: CU-ACC1
Method in brief: (§1)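 After 48 h of treatment with 23 nL of each library compound at 11 concentrations, three adrenocortical carcinoma cell lines in 1,536-well plates (500–1,000 cells/well, 5 µL medium) were given CellTiter-Glo for 15 minutes at room temperature. Luminescence was then read and normalised per plate to vehicle and empty-well controls. AC50 and area under the curve were drawn from fitted concentration-response curves of inhibitory or non-responding classes only.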

[2] = system: NCI-H295R
Method in brief: as §1

[3] = system: CU-ACC2
Method in brief: as §1

Compound	area under concentration-response curve [1]	area under concentration-response curve [2]	area under concentration-response curve [3]
NC1=NC(=C(C#N)C(=N1)N)N[C@@H](C2CC2)\C3=N\C4=C(C(=CC=C4F)Cl)C(=O)N3C5=CC=CN=C5	511	526	570
N[C@@H]1CONC1=O	533	559	497
COc1ccc2c(c1)CC[C@@H](CN(C)CC(=O)O)[C@H]2c1ccccc1	487	464	514
CN(C)c1ccc(-c2nc3c(N4CCN(CC(=O)Nc5nccs5)CC4)c(Cl)cnc3[nH]2)cc1	618	600	658
CCCCNc1ncc(-c2ccc(CN3CCOCC3)cn2)c(N[C@H]2CC[C@H](O)CC2)n1	612	623	721
CN(C)CCOC(c1ccccc1)c1ccccc1	478	527	565
CCN1\C=C(\C(O)=O)C(=O)C2=C1C=C(N3CCNCC3)C(=C2)F	356	393	397
CCNC(=O)[C@H]1O[C@@H](n2cnc3c(N)nc(NCCc4ccc(CCC(=O)O)cc4)nc32)[C@H](O)[C@@H]1O	404	537	587
CNC(=O)[C@H](Cc1ccccc1)NC(=O)[C@H](CC(C)C)[C@H](CSc1cccs1)C(=O)NO	480	560	596
CN[C@@H](C)C(=O)N[C@H](C(=O)N1CCC[C@H]1c1nc(C(=O)c2ccc(F)cc2)cs1)C1CCCCC1	525	546	571
OC[C@H]1O[C@H]([C@H](O)[C@@H]1O)N2/C=C\C=N/C2=O	525	583	609
CC1(C)CC[C@@]2(CC[C@]3(C)\C(=C/C[C@@H]4[C@@]5(C)C[C@@H](O)[C@H](O)C(C)(C)[C@@H]5CC[C@@]34C)[C@@H]2C1)C(O)=O	478	531	574
CN1CCN(C(=O)[C@H]2[C@@H](C(=O)O)[C@H]3CC[C@@H]2O3)CC1	628	620	699
C#CCC(Cc1cnc2nc(N)nc(N)c2n1)c1ccc(C(=O)N[C@@H](CCC(=O)O)C(=O)O)cc1 (stereo partly drawn)	552	546	509
OC1=C(C=CC=C1)C2=CC=C(C=C2)C3=CSC4=C3C(=C(/C#N)C(=O)N4)/O	535	570	626
COc1cc2ncn(-c3cc(OCc4ccccc4C(F)(F)F)c(C(N)=O)s3)c2cc1OC	515	506	606
CC1(N)CCN(c2cnc(-c3cccc(Cl)c3Cl)c(N)n2)CC1	543	577	627
COc1ccc([S+](=O)([O-])N2CCc3cccc(-c4ccncc4)c32)cc1	576	472	563
C[C@]12CC[C@H]3[C@@H](CCC4=CC(=O)CC[C@@H]43)[C@@H]1CC[C@@H]2OC(=O)CCc1ccccc1	461	498	534
OCCC#Cc1nc(-c2ccc(F)cc2)c(-c2ccncc2)n1CCCc1ccccc1	513	475	536
O=C(N[C@H]1CN2CCC1CC2)c1ccc(Cl)cc1	495	554	616
CC1(C)Cc2c(sc(NC(=S)NC(=O)c3ccccc3)c2C(=O)O)CO1	490	522	586
CC(C[N+](C)(C)C)OC(N)=O (stereo not drawn)	569	591	662

Compound	area under concentration-response curve [1]	area under concentration-response curve [2]	area under concentration-response curve [3]
Nc1cccc2c1CN([C@H]1CCC(=O)NC1=O)C2=O	454	498	544
COc1ccccc1N1CCN(CC(O)COc2cccc3ccccc23)CC1 (stereo not drawn)	458	501	515
NC[C@H]1O[C@H](O[C@@H]2[C@H](O)[C@@H](O[C@H]3O[C@H](CO)[C@@H](O)[C@H](N)[C@H]3O)[C@H](N)C[C@@H]2N)[C@H](O)[C@@H](O)[C@@H]1O	472	520	583
COc1ccc2cc(OCC3(C(=O)O)CN(C(=O)c4ccc(F)cc4)C3)ccc2c1	556	552	606
CC(=O)C1CCC2C3CC\C4=C\C(=O)CCC4(C)C3CCC12C (stereo not drawn)	548	607	645
COc1ccc2cc([C@H](C)C(=O)O)ccc2c1	503	524	510
CC(C)C[C@@H](C(=O)N[C@H](C(=O)OC1CCCC1)c1ccccc1)[C@H](O)C(=O)NO	463	539	551
CC(C)[C@H](N)C(=O)OCCOC[N]1C=NC2=C1\N=C(N)/NC2=O	449	390	394
CCN(C(=O)c1ccccc1OC)c1cc2c(cc1N1CCNC[C@H]1C)n(C)c(=O)n2C	544	510	628
C[C@](N)(Cc1ccc(O)c(O)c1)C(=O)O	475	524	477
[2H]c1nc(C)nc([2H])c1-c1cc(NC[C@@H](C)c2cccc3c(C(=O)NC)ccnc23)ncn1	531	585	629
C=CC(=O)N[C@H]1CCOC[C@H]1Nc1ncc2cc(-c3c(Cl)c(OC)cc(OC)c3Cl)ccc2n1	458	453	554
C[C@H](Cc1ccc(O)c(O)c1)[C@@H](C)Cc1ccc(O)c(O)c1	496	532	565
COC1=C(F)C(=CC=C1)C/2=C(C)/N(CC3=C(F)C=CC=C3C(F)(F)F)C(=O)N(C[C@H](NCCCC(O)=O)C4=CC=CC=C4)C2=O	508	556 and 555	598 and 615
Oc1ccc(-c2nc(-c3ccncc3)c(-c3ccc(F)cc3)[nH]2)cc1	493	475	574
Nc1nccc(-c2c(-c3ccc(F)cc3)ncn2C2CCN(Cc3ccon3)CC2)n1	467	495	578
COC1=C(NC2=NC=C(Cl)C(=N2)N[C@@H]3[C@H]\4C[C@@H](\C=C4)[C@H]3C(N)=O)C=CC5=C1CCC(CC5)N6CCOCC6 (stereo partly drawn)	526	460	600
CN(CCOc1ccc(N[S+](C)(=O)[O-])cc1)CCc1ccc(N[S+](C)(=O)[O-])cc1	541	586	637
CC(S)C(=O)NCC(=O)O (stereo not drawn)	547	563	632
Cc1cnc(NC(=O)c2cc(Oc3cnc(C(=O)N(C)C)nc3)c3cc(C)oc3c2)cn1	564	594	643
Cc1c(F)cccc1NC(=O)Nc1ccc(Cl)c([S+](=O)([O-])[C@H]2CCCNC2)c1O	540	552	545
CC1(C)[C@@H](O[C@H]2O[C@H](C(=O)O)[C@@H](O)[C@H](O)[C@H]2O[C@@H]2O[C@H](C(=O)O)[C@@H](O)[C@H](O)[C@H]2O)CC[C@]2(C)[C@H]3C(=O)C=C4[C@@H]5C[C@@](C)(C(=O)O)CC[C@]5(C)CC[C@@]4(C)[C@]3(C)CC[C@@H]12	541	567	522
Cc1ccc(CN2CCNCC2)cc1NC(=O)CNc1ccc(F)c(F)c1	531	596	635
